Experimental data published in ChEMBL document CHEMBL1201862, “PubChem BioAssay data set” (2004).
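Cultured in 96-well plates, cells were exposed to test compound for 48 hours across five concentrations. At the GI50, growth is halved.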 Activity calls are given as the source filed them. Cut-off read from the data, not from the text of the source: active = GI50 up to about 1.1 µM and inactive = higher.

How the values were obtained:
Assay in all cases: NCI anticancer screen, dose series, 48 h
786-0 = test system: 786-0
HCT-116 = test system: HCT-116
HL-60 = test system: HL-60
Malme-3M = test system: Malme-3M
NCI-H460 = test system: NCI-H460
RPMI-8226 = test system: RPMI-8226
RXF 393 = test system: RXF 393
SF-539 = test system: SF-539
SK-MEL-28 = test system: SK-MEL-28
SN12C = test system: SN12C
SNB-75 = test system: SNB-75
TK-10 = test system: TK-10
UACC-62 = test system: UACC-62
UO-31 = test system: UO-31
HT-29 = test system: HT-29
KM12 = test system: KM12
OVCAR-3 = test system: OVCAR-3
CAKI-1 = test system: CAKI-1
OVCAR-5 = test system: OVCAR-5
UACC-257 = test system: UACC-257

Measured: GI50

O=C1N(C2CCCCC2)CC12CCCCC2
inactive: 786-0 > 100 µM | HCT-116 > 100 µM | HL-60 41.2 µM | Malme-3M > 100 µM | NCI-H460 > 100 µM | RPMI-8226 > 100 µM | RXF 393 > 100 µM | SF-539 > 100 µM | SK-MEL-28 > 100 µM | SN12C > 100 µM | SNB-75 > 100 µM | TK-10 > 100 µM | UACC-62 > 100 µM | UO-31 > 100 µM

COc1ccc2c(c1)OCCC1=C2SCC2(C)CCN=C12 (stereo not drawn)
inactive: 786-0 > 100 µM | HCT-116 > 100 µM | HL-60 29 µM | HT-29 55.2 µM | KM12 > 100 µM | NCI-H460 > 100 µM | OVCAR-3 72.6 µM | RPMI-8226 > 100 µM | RXF 393 > 100 µM | SF-539 > 100 µM | SK-MEL-28 > 100 µM | SN12C > 100 µM | SNB-75 > 100 µM | TK-10 > 100 µM | UACC-62 > 100 µM

CCOC(=O)c1ccc(C(=O)n2ccnc2)[nH]1
inactive: 786-0 > 100 µM | CAKI-1 > 100 µM | HCT-116 > 100 µM | HL-60 > 100 µM | KM12 > 100 µM | Malme-3M > 100 µM | NCI-H460 > 100 µM | OVCAR-3 > 100 µM | OVCAR-5 > 100 µM | RPMI-8226 > 100 µM | RXF 393 85.7 µM | SK-MEL-28 > 100 µM | SN12C > 100 µM | SNB-75 63.5 µM | TK-10 > 100 µM | UACC-257 > 100 µM | UACC-62 > 100 µM | UO-31 > 100 µM

c1ccc2c(c1)nnn2CNc1ccc(N2CCOCC2)cc1
inactive: 786-0 > 100 µM | HCT-116 > 100 µM | HL-60 33.3 µM | HT-29 > 100 µM | KM12 > 100 µM | Malme-3M > 100 µM | NCI-H460 > 100 µM | OVCAR-3 > 100 µM | RPMI-8226 47.4 µM | RXF 393 > 100 µM | SF-539 > 100 µM | SK-MEL-28 > 100 µM | SN12C > 100 µM | SNB-75 > 100 µM | TK-10 > 100 µM | UACC-257 > 100 µM | UACC-62 > 100 µM | UO-31 > 100 µM

Cc1ccc(S(=O)(=O)NC(=O)NC(CCCCNC(=N)N)C(=O)O)cc1 (stereo not drawn)
inactive: 786-0 > 100 µM | HCT-116 > 100 µM | HL-60 > 100 µM | KM12 > 100 µM | Malme-3M > 100 µM | NCI-H460 > 100 µM | RPMI-8226 > 100 µM | RXF 393 > 100 µM | SF-539 > 100 µM | SK-MEL-28 > 100 µM | SN12C > 100 µM | SNB-75 > 100 µM | TK-10 > 100 µM | UACC-257 > 100 µM | UACC-62 > 100 µM | UO-31 > 100 µM

O=CNCNCCO
inactive: 786-0 > 100 µM | CAKI-1 > 100 µM | HCT-116 > 100 µM | HL-60 20.7 µM | HT-29 55.1 µM | Malme-3M > 100 µM | NCI-H460 > 100 µM | OVCAR-3 > 100 µM | OVCAR-5 > 100 µM | RPMI-8226 31.7 µM | RXF 393 > 100 µM | SK-MEL-28 > 100 µM | SNB-75 > 100 µM | TK-10 > 100 µM | UACC-62 46.9 µM | UO-31 > 100 µM

C(=C\c1csnn1)/c1cccnc1
inactive: 786-0 > 100 µM | HCT-116 > 100 µM | HL-60 > 100 µM | HT-29 > 100 µM | KM12 > 100 µM | Malme-3M > 100 µM | NCI-H460 > 100 µM | OVCAR-3 > 100 µM | OVCAR-5 > 100 µM | RPMI-8226 > 100 µM | RXF 393 > 100 µM | SF-539 > 100 µM | SK-MEL-28 > 100 µM | SN12C > 100 µM | SNB-75 > 100 µM | TK-10 > 100 µM | UACC-257 > 100 µM | UO-31 > 100 µM

COc1ccc(-c2csc3c2[N+]2(C)C=CC=C2C3N2CCCC2)cc1 (stereo not drawn)
inactive: 786-0 41.6 µM | CAKI-1 > 100 µM | HCT-116 33 µM | HL-60 3.61 µM | HT-29 16.9 µM | KM12 15.3 µM | Malme-3M 12.2 µM | NCI-H460 16.1 µM | OVCAR-3 13.3 µM | OVCAR-5 39 µM | RPMI-8226 8.34 µM | RXF 393 21.3 µM | SF-539 17.7 µM | SNB-75 4.12 µM | TK-10 48.9 µM | UACC-257 7.4 µM | UACC-62 15.5 µM | UO-31 57 µM
